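Protocol summary: plate cells (96-well), add compound at 5 concentrations, incubate 48 h, interpolate endpoints linearly. Here, GI50 denotes the concentration required for 50% inhibition of growth.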 Calls of active or inactive are those of the source. Rule as the data show it: active = GI50 up to about 1.1 µM and inactive = higher.
Experiments:
Test in all cases: inhibition of tumour cell growth, NCI panel, 48 h
[1] = system: 786-0
[2] = system: ACHN
[3] = system: TK-10
[4] = system: SF-295
[5] = system: Malme-3M
[6] = system: HCT-15
[7] = system: IGROV-1
[8] = system: SK-OV-3
[9] = system: DMS-273
[10] = system: NCI-H23
[11] = system: LXFL 529
[12] = system: K562
[13] = system: HOP-62
[14] = system: OVCAR-4
[15] = system: NCI-H522
[16] = system: HL-60

SMILES | GI50 [1] | GI50 [2] | GI50 [3] | GI50 [4] | GI50 [5] | GI50 [6] [µM] | GI50 [7] | GI50 [8] | GI50 [9] | GI50 [10] | GI50 [11] | GI50 [12] | GI50 [13] | GI50 [14] | GI50 [15] | GI50 [16]
CCOC(=O)c1ccc(N2C(=O)Cc3ccccc3C2=O)cc1 | > 100 µM (inactive) | > 100 µM (inactive) | > 100 µM (inactive) | > 100 µM (inactive) | > 100 µM (inactive) | > 100 | > 100 µM (inactive) | > 100 µM (inactive) | > 100 µM (inactive) | > 100 µM (inactive) | > 100 µM (inactive) | > 100 µM (inactive) | – | – | – | –
C=CCO/N=C(\OC(=O)c1ccc([N+](=O)[O-])cc1)c1ccccc1 | > 100 µM (inactive) | > 100 µM (inactive) | > 100 µM (inactive) | > 100 µM (inactive) | > 100 µM (inactive) | > 100 | > 100 µM (inactive) | > 100 µM (inactive) | > 100 µM (inactive) | > 100 µM (inactive) | > 100 µM (inactive) | > 100 µM (inactive) | > 100 µM (inactive) | > 100 µM (inactive) | – | –
O=C(CC(=O)N1N=C(c2ccccc2)C(/N=N/c2ccc(Cl)cc2)C1=O)Nc1ccccc1Cl (stereo unspecified) | 12.2 µM (inactive) | 15.6 µM (inactive) | 16.6 µM (inactive) | – | – | 51.2 | 36.4 µM (inactive) | 18.8 µM (inactive) | 32.2 µM (inactive) | 29.4 µM (inactive) | 26.7 µM (inactive) | 36.7 µM (inactive) | 20.1 µM (inactive) | 16 µM (inactive) | 30.3 µM (inactive) | 26.6 µM (inactive)
COc1cc2c3c(c1OC)C1(C=CC(=O)C=C1)CC3N(C(=O)OC(C)(C)C(Cl)(Cl)Cl)CC2 (stereo unspecified) | 14.2 µM (inactive) | – | 43.2 µM (inactive) | 13.4 µM (inactive) | 14.2 µM (inactive) | 7.52 | 16.6 µM (inactive) | 26.2 µM (inactive) | 9.38 µM (inactive) | 16.4 µM (inactive) | 8.85 µM (inactive) | 4.68 µM (inactive) | 17.6 µM (inactive) | 12.5 µM (inactive) | 8.93 µM (inactive) | 1.95 µM (inactive)
Cc1cc(C)[n+](CCOc2ccc(/C(=C(/Cl)c3ccccc3)c3ccccc3)cc2)c(C)c1.[O-][Cl+3]([O-])([O-])[O-] | 2.45 µM (inactive) | 10 µM (inactive) | 3.52 µM (inactive) | 2.47 µM (inactive) | 1.4 µM (inactive) | 13.4 | 0.612 µM (active) | 1.25 µM (inactive) | 0.366 µM (active) | 0.869 µM (active) | 0.506 µM (active) | 0.257 µM (active) | 2.37 µM (inactive) | 0.944 µM (active) | 0.39 µM (active) | 0.215 µM (active)
COc1ccc2nc3cc(Cl)ccc3c(Sc3ccc(NC(C)=O)cc3)c2c1 | 8.15 µM (inactive) | 4.86 µM (inactive) | > 36.2 µM (inactive) | > 25.9 µM (inactive) | > 35.2 µM (inactive) | – | > 32.4 µM (inactive) | > 22.4 µM (inactive) | 8.09 µM (inactive) | 13.8 µM (inactive) | 7.31 µM (inactive) | 9.71 µM (inactive) | > 41.7 µM (inactive) | > 24.4 µM (inactive) | 2.79 µM (inactive) | 19.4 µM (inactive)
COC(=O)C1=CC2OC1(C)C1(CC1)C2=O (stereo unspecified) | 17.2 µM (inactive) | 15.3 µM (inactive) | > 10 µM (inactive) | 19 µM (inactive) | 11.7 µM (inactive) | 15.9 | 17.9 µM (inactive) | 76.9 µM (inactive) | > 10 µM (inactive) | 22 µM (inactive) | 18.5 µM (inactive) | 12.2 µM (inactive) | > 100 µM (inactive) | 11.6 µM (inactive) | 5.73 µM (inactive) | 4.02 µM (inactive)
O=C(O)c1ccc(NC(=O)C2C(=O)C(=O)N(c3ccc(C(=O)O)cc3)C2=O)cc1 (stereo unspecified) | > 100 µM (inactive) | > 100 µM (inactive) | > 100 µM (inactive) | > 100 µM (inactive) | > 100 µM (inactive) | > 100 | > 100 µM (inactive) | > 100 µM (inactive) | > 100 µM (inactive) | > 100 µM (inactive) | – | > 100 µM (inactive) | > 100 µM (inactive) | > 100 µM (inactive) | > 100 µM (inactive) | > 100 µM (inactive)
O=C1C2=C(CCC2)Nc2cccc3ncn1c23 | > 100 µM (inactive) | 33.2 µM (inactive) | 14.7 µM (inactive) | > 100 µM (inactive) | > 100 µM (inactive) | 48.1 | > 100 µM (inactive) | 73.5 µM (inactive) | > 100 µM (inactive) | 51.6 µM (inactive) | > 100 µM (inactive) | > 100 µM (inactive) | – | – | 69.7 µM (inactive) | 15 µM (inactive)
CCCCCCCCC/C=C1\CCC(CN(C)C)C1=O (stereo unspecified) | 0.281 µM (active) | 2.2 µM (inactive) | 2.18 µM (inactive) | 3.22 µM (inactive) | 3.03 µM (inactive) | 2.22 | 2.63 µM (inactive) | 17.2 µM (inactive) | 1.69 µM (inactive) | 2.44 µM (inactive) | 1.34 µM (inactive) | 1.86 µM (inactive) | 2.08 µM (inactive) | – | 1.95 µM (inactive) | 1.94 µM (inactive)
